Test systems include ACHN renal; EKVX NSCLC; HT29 colon; MALME-3M melanoma; SR leukemia; A549 NSCLC; COLO 205 colon; LOX IMVI melanoma; SNB-75 CNS; HOP-92 NSCLC.
Experiment in all cases: inhibition of tumour cell growth, NCI panel, 48 h

“And” between values parts separate entries of the source, which are not always exact repeats. Equal entries are not always repeated.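 Step 1: Grow cells in 96-well plates. Step 2: Expose to compound for 48 hours at 5 concentrations. Step 3: Interpolate endpoints linearly; if unreached, use highest concentration. GI50 marks 50% less growth. TGI denotes the concentration required for complete inhibition of growth.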 Where only a bound is given, the exact number is not on record here.

For `CCN(CC)CCCC(C)Nc1cnc(C(=O)Nc2cc(F)cc3cccnc23)cn1` (centres undefined), the GI50 in the experiment on ACHN renal was 2.81 µM and 0.683 µM; in the experiment with EKVX NSCLC, 10.2 µM and 1.22 µM; with HT29 colon, 2.96 µM and 0.668 µM; in the experiment with MALME-3M melanoma it was 1.77 µM and 0.983 µM; with SR leukemia it was 2.66 µM and 1.6 µM; with A549 NSCLC, 8.14 µM and 2.41 µM. The GI50 is 1.16 µM and 0.461 µM with COLO 205 colon; 3.32 µM and 0.882 µM in the experiment on LOX IMVI melanoma; 4.49 µM and 1.45 µM with SNB-75 CNS; 2.43 µM and 1.19 µM with HOP-92 NSCLC. Besides, the TGI with ACHN renal was 9.61 µM and 1.96 µM; in the experiment with EKVX NSCLC, 22.1 µM and 2.51 µM; with HT29 colon it was 10.8 µM and 4.76 µM; with MALME-3M melanoma, 3.38 µM and 2.28 µM; with A549 NSCLC, 22.3 µM and 6.28 µM; in the experiment on COLO 205 colon, 3.57 µM and 2.16 µM. Also, the TGI in the experiment with LOX IMVI melanoma is 11.3 µM and 2.28 µM; in the experiment with SNB-75 CNS it was 20.1 µM and 2.79 µM; in the experiment on HOP-92 NSCLC it was 14.5 µM and 2.62 µM.

As for `Cn1c(=O)c2[nH]c(COCc3nc4c([nH]3)c(=O)n(C)c(=O)n4C)nc2n(C)c1=O`, the TGI in the experiment with ACHN renal, in the experiment with EKVX NSCLC, in the experiment on HT29 colon, in the experiment with MALME-3M melanoma, in the experiment on SR leukemia and in the experiment on A549 NSCLC was over 100 µM throughout. Besides, the TGI in the experiment with COLO 205 colon, in the experiment with LOX IMVI melanoma, in the experiment with SNB-75 CNS and in the experiment on HOP-92 NSCLC was over 100 µM in each case.

As to `Cc1ccc(C(=O)N/N=C/c2cccc(Oc3ccccc3)c2)cn1`, the GI50 was 45.9 µM in the experiment on ACHN renal; 8.36 µM in the experiment with EKVX NSCLC; 3.25 µM in the experiment on HT29 colon; 9.14 µM in the experiment with MALME-3M melanoma; 1.01 µM in the experiment with SR leukemia; 17 µM with A549 NSCLC. For the same molecule, the GI50 in the experiment on COLO 205 colon is 5.66 µM; with LOX IMVI melanoma it was 8.54 µM; in the experiment with SNB-75 CNS, 4.85 µM; with HOP-92 NSCLC it was 12.7 µM. For the same molecule, the TGI in the experiment on ACHN renal is over 100 µM; in the experiment on EKVX NSCLC, over 100 µM; in the experiment on HT29 colon it was over 100 µM; with MALME-3M melanoma it was over 100 µM; in the experiment with SR leukemia it was 20.7 µM; in the experiment on A549 NSCLC, over 100 µM. Moreover, the TGI in the experiment with COLO 205 colon is 38.1 µM; in the experiment with LOX IMVI melanoma it was over 100 µM; with SNB-75 CNS, over 60.7 µM; in the experiment on HOP-92 NSCLC, over 100 µM.

For the molecule `CC1(C)N=C(N)N=C(N)N1c1cccc(CCCCc2ccc(S(=O)(=O)F)cc2Cl)c1`, the GI50 in the experiment with ACHN renal is 8.66 µM; with EKVX NSCLC, 2.02 µM; with HT29 colon it was 0.788 µM; in the experiment with MALME-3M melanoma it was 1.12 µM; in the experiment on SR leukemia it was 0.456 µM; in the experiment on A549 NSCLC, 1.42 µM. In addition, the GI50 with COLO 205 colon was 5.37 µM; in the experiment with LOX IMVI melanoma, 1.34 µM; in the experiment on SNB-75 CNS it was 2.74 µM; with HOP-92 NSCLC it was 14 µM. In addition, the TGI in the experiment with ACHN renal is over 100 µM; in the experiment with EKVX NSCLC it was over 67.5 µM; in the experiment with HT29 colon it was over 100 µM; with MALME-3M melanoma it was 28.2 µM; in the experiment with SR leukemia, over 49.5 µM; with A549 NSCLC, over 100 µM. For the same molecule, the TGI with COLO 205 colon is 32.9 µM; in the experiment on LOX IMVI melanoma, over 41.7 µM; in the experiment with SNB-75 CNS it was 23.9 µM; in the experiment on HOP-92 NSCLC, 47.8 µM.

As to `COc1cc(-c2cn(-c3ccc(Cl)cc3)c(=O)[nH]2)cc(OC)c1OC`, the GI50 in the experiment on ACHN renal was over 100 µM; in the experiment on EKVX NSCLC, over 100 µM; in the experiment on HT29 colon, over 100 µM; with MALME-3M melanoma, over 100 µM; in the experiment on SR leukemia, 0.034 µM; with A549 NSCLC, over 100 µM. Also, the GI50 with COLO 205 colon, in the experiment with LOX IMVI melanoma, with SNB-75 CNS and with HOP-92 NSCLC was over 100 µM each time. Besides, the TGI in the experiment on ACHN renal was over 100 µM; with EKVX NSCLC it was over 100 µM; with HT29 colon, over 100 µM; with MALME-3M melanoma, over 100 µM; in the experiment with SR leukemia, 39.1 µM; in the experiment on A549 NSCLC, over 100 µM. In addition, the TGI with COLO 205 colon, in the experiment with LOX IMVI melanoma, in the experiment with SNB-75 CNS and with HOP-92 NSCLC was over 100 µM each time.

As for `COc1cc2c(OC)c(c1)CCCC1=CC(=O)C=C(CCC2)C1=O`, the TGI is over 100 µM with ACHN renal; over 87.4 µM in the experiment with EKVX NSCLC; over 100 µM in the experiment on HT29 colon; 75.8 µM with MALME-3M melanoma; over 56.5 µM in the experiment with SR leukemia; over 100 µM in the experiment with A549 NSCLC. Also, the TGI was over 31.6 µM with COLO 205 colon, 31.1 µM in the experiment on LOX IMVI melanoma, over 100 µM with SNB-75 CNS and 36.6 µM in the experiment with HOP-92 NSCLC.

Turning to `CN1CCN(Cc2ccc(NC(=O)c3[nH]ncc3Nc3ncnc4c3CCC4)cc2)CC1`, the GI50 with ACHN renal was 1.32 µM; in the experiment on EKVX NSCLC, 2.38 µM; in the experiment on HT29 colon, 2.17 µM; in the experiment with MALME-3M melanoma it was 3.26 µM; in the experiment on SR leukemia, 0.438 µM; with A549 NSCLC it was 2.18 µM. The GI50 in the experiment on COLO 205 colon is 0.475 µM; in the experiment on LOX IMVI melanoma it was 0.817 µM; with SNB-75 CNS it was 0.0341 µM; in the experiment on HOP-92 NSCLC, 4.43 µM. The TGI in the experiment with ACHN renal stood at 9.09 µM; in the experiment with EKVX NSCLC, 6.6 µM; in the experiment on HT29 colon, 8.79 µM; in the experiment on MALME-3M melanoma it was 8.06 µM; in the experiment with SR leukemia, 3.05 µM; in the experiment on A549 NSCLC, 12.8 µM. For the same molecule, the TGI in the experiment with COLO 205 colon came to 2.25 µM; in the experiment with LOX IMVI melanoma, 3.1 µM; with SNB-75 CNS, 3.2 µM; in the experiment with HOP-92 NSCLC, 8.33 µM.

Take `CC(=O)OC[C@@H]1[C@H]2CC(=O)O[C@H]2C[C@H]1OC(C)=O`: the TGI with ACHN renal, in the experiment on EKVX NSCLC, in the experiment on HT29 colon, with MALME-3M melanoma, in the experiment on SR leukemia and in the experiment on A549 NSCLC was over 100 µM in each case. The TGI in the experiment on COLO 205 colon, in the experiment with LOX IMVI melanoma, in the experiment on SNB-75 CNS and in the experiment with HOP-92 NSCLC was over 100 µM in each case.

The record behind these values is PubChem BioAssay (NCI).
